Measurements: ChEMBL document CHEMBL1201862, “PubChem BioAssay data set” (2004)
Active and inactive are the calls of the source.

Experiments:
[1] = target: T1, Alkaline phosphatase, tissue-nonspecific isozyme (Homo sapiens, UniProt P05186); test: potency against alkaline phosphatase TNAP – biochemical, luminescent, dose response, SAR follow-up (AID 1056)
T1 sequence (P05186 whole entry): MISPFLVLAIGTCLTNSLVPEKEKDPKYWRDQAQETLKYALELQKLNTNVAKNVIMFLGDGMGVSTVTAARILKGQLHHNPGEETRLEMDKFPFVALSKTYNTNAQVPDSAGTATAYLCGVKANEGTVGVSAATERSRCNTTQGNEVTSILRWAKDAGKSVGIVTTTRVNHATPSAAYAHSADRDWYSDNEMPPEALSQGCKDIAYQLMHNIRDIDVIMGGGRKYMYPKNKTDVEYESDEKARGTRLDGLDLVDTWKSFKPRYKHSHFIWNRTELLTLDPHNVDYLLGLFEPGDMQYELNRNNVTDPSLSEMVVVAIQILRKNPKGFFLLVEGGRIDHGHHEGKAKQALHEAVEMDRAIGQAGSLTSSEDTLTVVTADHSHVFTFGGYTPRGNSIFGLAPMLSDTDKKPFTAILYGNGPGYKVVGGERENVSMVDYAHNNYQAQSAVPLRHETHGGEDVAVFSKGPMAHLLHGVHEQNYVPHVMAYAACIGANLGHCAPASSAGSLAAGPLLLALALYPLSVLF

[2] = target: Glyceraldehyde-3-phosphate dehydrogenase (Homo sapiens, UniProt P04406)
[3] = target: T2, Ubiquitin-conjugating enzyme E2 N (Homo sapiens, UniProt P61088); assay type: functional
T2 sequence (P61088 whole entry): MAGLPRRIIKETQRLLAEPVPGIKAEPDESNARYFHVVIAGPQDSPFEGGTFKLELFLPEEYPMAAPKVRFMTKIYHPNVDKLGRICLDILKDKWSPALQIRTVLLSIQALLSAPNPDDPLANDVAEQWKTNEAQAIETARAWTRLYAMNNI

[4] = target: T3, Bcl-2-related protein A1 (Mus musculus, UniProt Q07440); assay type: functional;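 further: confirmatory dose–response counterscreen on Bfl-1, used to check hits from a UBC13 polyubiquitin inhibitor campaign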
T3 sequence (Q07440 whole entry): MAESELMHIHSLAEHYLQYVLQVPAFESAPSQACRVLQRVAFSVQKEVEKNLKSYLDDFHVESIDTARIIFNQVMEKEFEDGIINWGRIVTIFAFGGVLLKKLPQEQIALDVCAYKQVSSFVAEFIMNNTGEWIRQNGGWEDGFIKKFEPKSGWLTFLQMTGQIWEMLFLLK

[5] = target: T2, Ubiquitin-conjugating enzyme E2 N; assay type: functional; remark: listed apart in the source
[6] = alpha-synuclein stem-loop luciferase translation blockers – H4 neuroglioma cells, luminescence, confirmation (AID 1988); assay type: functional, cell-based
[7] = luciferase reporter signal suppression in cells – H4 neuroglioma cells, luminescence, dose response (AID 1990); assay type: functional, cell-based
[8] = Luminescence Cell-Based Dose Response HTS to Identify Inhibitors of 5'UTR Stem-Loop Driven Prion Protein mRNA Translation in H4 Neuroglioblastoma Cells. [Related pubchem assays: 1827 (Project Summary), 1813 (Primary HTS)]; assay type: functional
[9] = test system: INS1; test: INS-1E survival protection against cytokine death – cell-based, luminescence, retest, dose response (AID 449756); assay type: functional; settings: Rattus norvegicus;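 further: cell death triggered by IL-1 beta plus TNF-alpha plus IFN-gamma mixture; protective hits raise ATP signal compared with cytokine alone wells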
[10] = target: T4, DNA repair protein RAD52 homolog (Homo sapiens, UniProt P43351); assay type: functional, biochemical
T4 sequence (P43351 whole entry): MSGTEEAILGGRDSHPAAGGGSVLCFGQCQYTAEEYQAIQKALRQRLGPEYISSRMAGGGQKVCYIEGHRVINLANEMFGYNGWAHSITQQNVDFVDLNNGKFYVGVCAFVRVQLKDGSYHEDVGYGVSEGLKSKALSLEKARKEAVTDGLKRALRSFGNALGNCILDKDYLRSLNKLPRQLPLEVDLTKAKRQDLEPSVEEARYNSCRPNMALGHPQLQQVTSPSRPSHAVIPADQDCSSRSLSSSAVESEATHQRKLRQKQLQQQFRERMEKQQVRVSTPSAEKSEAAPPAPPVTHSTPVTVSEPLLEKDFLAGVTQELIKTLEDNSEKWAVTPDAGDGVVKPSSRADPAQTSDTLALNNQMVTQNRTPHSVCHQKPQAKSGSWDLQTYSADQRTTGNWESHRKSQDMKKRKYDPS

[11] = target: Nonstructural protein 1 (Influenza A virus, UniProt Q194T2); assay type: functional, Influenza A virus (A/California/07/2009(H1N1))
[12] = target: DNA dC->dU-editing enzyme APOBEC-3G (Homo sapiens, UniProt Q9HC16); assay type: functional;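 further: Dose-response counterscreen measuring inhibition of APOBEC3G DNA deaminase activity, run while confirming APOBEC3A inhibitors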
[13] = target: DNA dC->dU-editing enzyme APOBEC-3A (Homo sapiens, UniProt P31941); test: Dose Response confirmation of small molecule APOBEC3A DNA Deaminase Inhibitors via a fluorescence-based single-stranded DNA deaminase assay. [Related pubchem assays (depositor defined):AID493011, AID493024]; assay type: functional
[14] = target: G-protein coupled receptor 55 (Homo sapiens, UniProt Q9Y2T6); test: inhibition of LPI-stimulated GPR55 beta-arrestin translocation – imaging, U2OS, beta-arrestin-GFP, LPI agonist, primary screen (AID 2013); assay type: functional;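 further: antagonist potency measured as reduced agonist-driven arrestin aggregation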
[15] = target: FAD-linked sulfhydryl oxidase ALR (Homo sapiens, UniProt P55789); test: ALR-catalysed DTT oxidation blockers – biochemical, H2O2 detection, luminescence, cherry-pick, dose response (AID 493248)
[16] = target: T5, Short transient receptor potential channel 4 (Mus musculus, UniProt Q9QUQ5); test: block of DAMGO-driven TRPC4 calcium entry – cell-based, HEK293 TRPC4/mu-opioid, Fluo-4 calcium, dose response (AID 434942); assay type: functional;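 further: potency of inhibitors blocking the TRPC4 calcium response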
T5 sequence (Q9QUQ5 whole entry): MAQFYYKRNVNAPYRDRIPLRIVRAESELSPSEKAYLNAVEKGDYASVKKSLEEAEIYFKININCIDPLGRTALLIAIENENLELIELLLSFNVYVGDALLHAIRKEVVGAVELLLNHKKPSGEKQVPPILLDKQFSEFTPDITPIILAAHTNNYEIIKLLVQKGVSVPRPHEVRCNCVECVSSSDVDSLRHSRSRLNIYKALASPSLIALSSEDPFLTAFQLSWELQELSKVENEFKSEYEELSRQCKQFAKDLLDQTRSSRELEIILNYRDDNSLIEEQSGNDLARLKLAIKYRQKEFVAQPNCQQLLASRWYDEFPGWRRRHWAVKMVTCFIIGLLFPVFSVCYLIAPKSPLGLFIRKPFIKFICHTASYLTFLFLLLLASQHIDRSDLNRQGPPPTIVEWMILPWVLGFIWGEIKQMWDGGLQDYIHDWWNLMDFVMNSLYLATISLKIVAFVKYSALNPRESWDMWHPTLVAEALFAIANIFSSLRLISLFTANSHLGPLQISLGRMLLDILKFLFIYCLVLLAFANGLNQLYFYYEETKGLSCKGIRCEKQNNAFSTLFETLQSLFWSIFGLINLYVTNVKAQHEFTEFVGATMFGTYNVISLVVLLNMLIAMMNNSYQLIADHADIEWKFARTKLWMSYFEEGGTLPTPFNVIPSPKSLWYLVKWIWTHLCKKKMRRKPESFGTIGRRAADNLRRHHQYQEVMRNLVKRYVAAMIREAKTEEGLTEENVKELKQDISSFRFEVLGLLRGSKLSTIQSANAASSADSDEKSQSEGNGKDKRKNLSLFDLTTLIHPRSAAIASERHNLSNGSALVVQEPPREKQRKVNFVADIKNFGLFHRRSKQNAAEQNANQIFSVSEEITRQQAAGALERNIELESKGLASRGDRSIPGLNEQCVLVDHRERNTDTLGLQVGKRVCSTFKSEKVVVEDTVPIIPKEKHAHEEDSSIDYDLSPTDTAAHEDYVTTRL

[17] = HEK-293T viability loss after treatment – luminescence, T-cell screen hits, cytotoxicity control for TCR NF-kB inhibitor project, dose response (AID 489026); assay type: functional, cell-based;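 further: cells exposed to compound about 14 hours before the viability readout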
[18] = target: T6, Heat shock factor protein 1 (Mus musculus, UniProt P38532); test: enhancement of HSF1-driven luciferase signal – cell-based, NIH3T3, luminescence, dose retest, confirmation (AID 435004); assay type: functional;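 further: stress induced by proteasome inhibitor MG132 added 30 min after compound; luciferase reporter driven by HSF1 response element in NIH3T3 cells; actives raise luminescence as potentiators of the MG132 stress response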
T6 sequence (P38532 whole entry): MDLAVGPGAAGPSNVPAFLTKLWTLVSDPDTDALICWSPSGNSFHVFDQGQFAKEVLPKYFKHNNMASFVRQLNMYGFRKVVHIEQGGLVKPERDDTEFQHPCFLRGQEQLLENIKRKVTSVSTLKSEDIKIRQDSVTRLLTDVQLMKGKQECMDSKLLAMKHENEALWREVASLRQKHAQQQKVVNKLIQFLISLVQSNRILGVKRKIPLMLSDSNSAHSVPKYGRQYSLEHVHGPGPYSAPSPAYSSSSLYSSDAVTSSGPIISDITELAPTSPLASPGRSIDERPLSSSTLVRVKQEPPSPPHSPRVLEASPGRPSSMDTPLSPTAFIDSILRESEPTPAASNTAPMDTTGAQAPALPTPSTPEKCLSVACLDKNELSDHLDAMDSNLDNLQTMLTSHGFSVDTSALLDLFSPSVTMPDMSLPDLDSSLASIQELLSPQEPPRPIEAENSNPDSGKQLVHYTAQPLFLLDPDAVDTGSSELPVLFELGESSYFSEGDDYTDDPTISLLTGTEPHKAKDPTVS

[19] = target: Prothrombin (Homo sapiens, UniProt P00734); test: Thrombin 1536 HTS Dose Response Confirmation. [Related pubchem assays: 1046 (Thrombin 1536 HTS; hits were confirmed in this assay)]; assay type: functional
[20] = A cytotoxicity screen of small molecule inhibitors of the PhoP region in Salmonella typhi identified in the primary screen. [Related pubchem assays: 1850, 1864, 1985 ]; assay type: functional
[21] = target: T7, Calpain-2 catalytic subunit (Sus scrofa, UniProt P43367); test: m-calpain protease blockers, concentration series – biochemical, fluorogenic peptide substrate, dose response (AID 1420); assay type: functional
T7 sequence (P43367 whole entry): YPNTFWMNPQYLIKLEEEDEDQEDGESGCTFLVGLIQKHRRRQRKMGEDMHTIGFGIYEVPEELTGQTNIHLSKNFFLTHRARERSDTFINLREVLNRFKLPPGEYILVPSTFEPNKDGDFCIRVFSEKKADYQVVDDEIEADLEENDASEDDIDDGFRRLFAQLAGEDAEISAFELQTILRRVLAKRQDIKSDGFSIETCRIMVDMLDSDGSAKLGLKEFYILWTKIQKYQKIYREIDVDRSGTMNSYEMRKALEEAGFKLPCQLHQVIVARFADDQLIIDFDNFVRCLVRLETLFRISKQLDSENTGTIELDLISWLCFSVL

[22] = microbe, parasite or virus in culture; assay type: functional; settings: Mycobacterium tuberculosis
[23] = target: Melanocortin receptor 4 (Homo sapiens, UniProt P32245); assay type: functional, cell-based;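 further: Cell-based assay with luminescence read-out, confirmatory dose-response testing for agonist activity of biased ligands at MC4R; human U2OS cells with tagged receptor and beta-arrestin; potency of agonists that increase receptor coupling to beta-arrestin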
[24] = Luminescence Cell-Based Dose Retest to Confirm Inhibitors of Cancer Stem Cells. [Related pubchem assays (depositor defined):AID2717, AID2721]; assay type: functional; settings: Homo sapiens
[25] = THP-1 cell cytotoxicity, dose response, cytotoxicity control for non-replicating M. tuberculosis project (AID 489025); assay type: functional

Sequence of DNA dC->dU-editing enzyme APOBEC-3G (Q9HC16 whole entry): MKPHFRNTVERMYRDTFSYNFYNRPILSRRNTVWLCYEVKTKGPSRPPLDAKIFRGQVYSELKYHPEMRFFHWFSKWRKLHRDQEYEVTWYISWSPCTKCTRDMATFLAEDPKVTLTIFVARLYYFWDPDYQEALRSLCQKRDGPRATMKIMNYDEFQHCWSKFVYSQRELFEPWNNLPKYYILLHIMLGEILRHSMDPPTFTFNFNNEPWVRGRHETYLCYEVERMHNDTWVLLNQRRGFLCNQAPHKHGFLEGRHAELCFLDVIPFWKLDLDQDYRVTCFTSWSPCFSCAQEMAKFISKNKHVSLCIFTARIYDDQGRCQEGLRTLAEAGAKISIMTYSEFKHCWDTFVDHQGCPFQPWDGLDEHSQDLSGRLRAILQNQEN
Sequence of DNA dC->dU-editing enzyme APOBEC-3A (P31941 whole entry): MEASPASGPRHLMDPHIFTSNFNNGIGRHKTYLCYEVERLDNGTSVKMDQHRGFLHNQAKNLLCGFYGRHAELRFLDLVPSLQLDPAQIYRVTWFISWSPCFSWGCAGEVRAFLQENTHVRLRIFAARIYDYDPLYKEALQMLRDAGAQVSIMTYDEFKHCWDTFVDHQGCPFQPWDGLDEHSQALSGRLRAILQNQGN
Sequence of G-protein coupled receptor 55 (Q9Y2T6 whole entry): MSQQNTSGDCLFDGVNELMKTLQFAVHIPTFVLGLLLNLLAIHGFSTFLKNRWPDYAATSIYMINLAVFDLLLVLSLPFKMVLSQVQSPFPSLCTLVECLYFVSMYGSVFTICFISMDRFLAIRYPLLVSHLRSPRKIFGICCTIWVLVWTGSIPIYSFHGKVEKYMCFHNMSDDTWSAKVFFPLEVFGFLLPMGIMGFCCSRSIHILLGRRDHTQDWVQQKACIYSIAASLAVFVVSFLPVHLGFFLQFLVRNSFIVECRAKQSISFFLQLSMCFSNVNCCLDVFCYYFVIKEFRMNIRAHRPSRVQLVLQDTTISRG
Sequence of Glyceraldehyde-3-phosphate dehydrogenase (P04406 whole entry): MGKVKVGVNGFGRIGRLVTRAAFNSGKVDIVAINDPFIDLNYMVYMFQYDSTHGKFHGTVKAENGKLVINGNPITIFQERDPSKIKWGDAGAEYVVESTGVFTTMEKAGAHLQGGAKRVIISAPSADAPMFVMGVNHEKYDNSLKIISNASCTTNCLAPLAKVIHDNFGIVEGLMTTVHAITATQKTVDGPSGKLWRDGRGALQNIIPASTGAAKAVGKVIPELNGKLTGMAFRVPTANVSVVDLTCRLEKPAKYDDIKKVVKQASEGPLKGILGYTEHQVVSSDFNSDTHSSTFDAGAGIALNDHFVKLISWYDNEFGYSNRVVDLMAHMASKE
Sequence of Melanocortin receptor 4 (P32245 whole entry): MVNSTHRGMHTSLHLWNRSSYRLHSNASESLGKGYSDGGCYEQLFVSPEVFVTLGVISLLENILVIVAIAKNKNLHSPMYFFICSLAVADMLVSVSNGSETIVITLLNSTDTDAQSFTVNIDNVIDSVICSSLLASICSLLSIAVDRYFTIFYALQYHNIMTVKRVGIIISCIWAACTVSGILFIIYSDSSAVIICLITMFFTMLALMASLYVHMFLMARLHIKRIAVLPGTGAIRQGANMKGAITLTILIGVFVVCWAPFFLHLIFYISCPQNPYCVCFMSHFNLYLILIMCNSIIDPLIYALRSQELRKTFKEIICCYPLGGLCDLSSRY
Sequence of Nonstructural protein 1 (Q194T2 whole entry): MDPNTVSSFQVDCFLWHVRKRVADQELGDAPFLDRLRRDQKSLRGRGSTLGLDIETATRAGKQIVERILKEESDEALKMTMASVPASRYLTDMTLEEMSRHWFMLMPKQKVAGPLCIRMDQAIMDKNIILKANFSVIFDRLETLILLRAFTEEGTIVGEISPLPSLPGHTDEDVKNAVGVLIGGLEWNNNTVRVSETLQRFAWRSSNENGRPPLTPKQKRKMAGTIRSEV
Sequence of FAD-linked sulfhydryl oxidase ALR (P55789 whole entry): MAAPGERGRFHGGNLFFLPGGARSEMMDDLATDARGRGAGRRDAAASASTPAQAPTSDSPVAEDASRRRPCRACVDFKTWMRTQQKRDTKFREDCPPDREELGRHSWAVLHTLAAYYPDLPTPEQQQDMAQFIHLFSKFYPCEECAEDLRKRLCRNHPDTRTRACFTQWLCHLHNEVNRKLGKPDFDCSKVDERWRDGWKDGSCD

## CCCCSc1nnc(N)[nH]1
[1]
  IC50: > 100 µM (inactive)
[2]
  IC50: > 100 µM (not active)

## O=C(C[n+]1ccc(CCSc2ccc(F)cc2)cc1)c1ccccc1
[3]
  IC50: 1.46 µM (active)
[4]
  IC50: 5.2 µM (active)
[5]
  IC50: 1.02 µM (active)

## CCN1CCN(Cc2ccc(NC(=O)c3cc(NC(=O)C(=O)c4c[nH]c5ccccc45)cc(OC)c3)cc2C(F)(F)F)CC1
[3]
  IC50: 16.8 µM (active)
[6]
  EC50: 9.06 µM (active)
[7]
  EC50: 8.53 µM (active)
[8]
  EC50: 6.9 µM (active)
[9]
  AC50: 7.13 µM (active)
[4]
  IC50: > 20 µM (inactive)
[5]
  IC50: 11.9 µM (active)

## O=C(c1ccc(-c2cc(O)c3ncccc3c2)cc1)N1CCNCC1
[3]
  IC50: 3.61 µM (active)
[10]
  AC50: 1.66 µM (active)
[11]
  IC50: 9.74 µM (active)
[4]
  IC50: 7 µM (active)
[5]
  IC50: 3.14 µM (active)

## Nc1nc2c(s1)CCCCCCCCCC2
[12]
  IC50: 4.49 µM (active)
[13]
  IC50: 7.08 µM (active)

## CCN1C(NCCc2c[nH]c3ccccc23)=N[C@@H](c2ccccc2)[C@H](C(=O)OC)[C@H]1C
[12]
  IC50: 8.65 µM (active)
[13]
  IC50: 6.29 µM (active)

## C=C(c1ccc(O)cc1)c1ccc(O)cc1
[14]
  IC50: 1.75 µM (active)
[15]
  AC50: 0.205 µM (active)
[16]
  EC50: 3.76 µM (active)

## CCOc1cc(S(=O)(=O)Nc2cccnc2)c(OCC)cc1C
[1]
  IC50: 2.61 µM (active)

## COc1ccc(S(=O)(=O)N2N=C(C)Oc3ccccc3C2=O)cc1
[17]
  IC50: > 80 µM (inactive)

## O=C(CC1(O)C(=O)Nc2ccc(Br)cc21)c1ccc2c(c1)OCO2 (centres undefined)
[18]
  EC50: > 260 µM (inactive)
[19]
  IC50: 2.3 µM (active)
[20]
  EC50: > 50 µM (active)

## CC(C)[N+](C)(C)CC(O)CN(c1ccccc1)c1ccccc1 (centres undefined)
[12]
  IC50: 2.65 µM (active)
[13]
  IC50: 3.2 µM (active)

## S=c1[nH]nc(CSCc2ccccc2Cl)n1C1CCCCC1
[14]
  IC50: 3.7 µM (active)
[21]
  IC50: 11.1 µM (not active)

## COc1cc2nc(Nc3ccc(C)c(Cl)c3)nc(N)c2cc1OC
[3]
  IC50: 8.57 µM (active)
[10]
  AC50: 9.23 µM (active)
[22]
  CC50: 3.77 µM (active)
[23]
  EC50: > 89.2 µM (inactive)
[4]
  IC50: 18.7 µM (active)
[24]
  AC50: 6.52 µM (active)
[5]
  IC50: 5.71 µM (active)

## O=C(c1cn(Cc2ccccc2)nc1-c1ccccc1)N1CCN(c2ccccn2)CC1
[17]
  IC50: > 80 µM (inactive)

## CC1=NN(C(=O)c2ccc(Cn3nc(C)c(Br)c3C)cc2)C(O)(C(F)(F)F)C1 (centres undefined)
[25]
  CC50: 34 µM (active)

## O=S(=O)(Nc1ccccc1I)c1cnc2ccccc2c1
[1]
  IC50: > 10 µM (inactive)
[2]
  IC50: > 10 µM (inconclusive)
